Measurements published in patent US20110207723A1, “NOVEL FUSED AMINODIHYDROTHIAZINE DERIVATIVE” (EISAI R&D MANAGEMENT CO., LTD., priority 2008, published 2011).

Tested on: Aβ42 production
Assay: Quantification of Aβ peptide in culture of neurons from rat fetus brain (Aβ42 ELISA)
Type: cell-based
Settings: Neuron, 72 h, rat primary neuronal culture (embryonic day 18 Wistar rat cerebral cortex), medium collected three days after addition of compound, read-out: Aβ42 production reducing effect IC50
Procedure, shortened: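 Primary cortical neurons from E18 Wistar rat embryos, cultured 4 days in Neurobasal/B27/2-ME, then treated 3 days with compound in Neurobasal/B27 (final DMSO 1% or less; DMSO control). Conditioned medium collected; Aβx-42 measured undiluted by sandwich ELISA kit.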

Question: Which IC50 does the source give for `NC1=N[C@@]2(c3cc(NC(=O)c4ncc(Cl)cc4Cl)ccc3F)COCC[C@H]2CS1` (single isomer, unassigned) [Example 52, N-[3-((4aR*,8aS*)-2-amino-4,4a,5,6-tetrahydro-7-oxa-3-thia-1-azanaphthalen-8a-yl)-4-fluorophenyl]-3,5-dichloropyridine-2-carboxamide] here?
Answer: 2 nM

Question: For `NC1=N[C@@]2(c3cc(NC(=O)c4ccccn4)ccc3F)CO[C@@H](C(F)(F)F)C[C@H]2CS1` (relative stereo) [Example 38, N-[3-((4aR*,6R*,8aS*)-2-amino-6-trifluoromethyl-4,4a,5,6-tetrahydro-7-oxa-3-thia-1-azanaphthalen-8a-yl)-4-fluorophenyl]-pyridine-2-carboxamide], which IC50 is on record?
Answer: 3 nM

Question: How did the IC50 turn out when `N#Cc1ccc(C(=O)Nc2ccc(F)c([C@]34COC[C@@H](F)[C@H]3CSC(N)=N4)c2)nc1` [Example 16, N-[3-((4aS,5S,8aS)-2-amino-5-fluoro-4,4a,5,6-tetrahydro-7-oxa-3-thia-1-azanaphthalen-8a-yl)-4-fluorophenyl]-5-cyanopyridine-2-carboxamide] was run?
Answer: 1.1 nM

Question: `NC1=N[C@@]2(c3cc(NC(=O)c4cnc(OCF)cn4)ccc3F)COCC[C@H]2CS1` (relative stereo) [Example 2, N-[348S*,8aR*)-2-amino-4,4a,5,6-tetrahydro-7-oxa-3-thia-1-azanaphthalen-8a-yl)-4-fluorophenyl]-5-fluoromethoxypyrazine-2-carboxamide] was tested. Which IC50 did it give?
Answer: 2 nM

Question: Which IC50 does the source give for `C[C@H]1C[C@H]2CSC(N)=N[C@@]2(c2cc(NC(=O)c3ccc(C(F)(F)F)cn3)ccc2F)CO1` (relative stereo) [Example 8, N-[3-((4aR*,6S*,8aS*)-2-amino-6-methyl-4,4a,5,6-tetrahydro-7-oxa-3-thia-1-azanaphthalen-8a-yl)-4-fluorophenyl]-5-trifluoromethylpyridine-2-carboxamide] here?
Answer: 1.6 nM

Question: With `C[C@H]1SC(N)=N[C@@]2(c3cc(NC(=O)c4cnc(C(F)F)cn4)ccc3F)COCC[C@@H]12` (relative stereo) [Example 32, N-[3-((2R*,4aR*,8aS*)-2-amino-4-methyl-4,4a,5,6-tetrahydro-7-oxa-3-thia-1-azanaphthalen-8a-yl)-4-fluorophenyl]-5-difluoromethylpyrazine-2-carboxamide] as the compound, how does the IC50 read?
Answer: 3 nM
